The structures appear in SMILES notation. Some results are limits rather than exact numbers.

The record followed here is ChEMBL document CHEMBL1255562, “6,7-Dihydroxy-4-phenylcoumarin as inhibitor of aldose reductase 2” (Bioorg Med Chem Lett, 2010).

One test addresses T1, Sorbitol dehydrogenase (Homo sapiens, UniProt Q00796).
T1 sequence (Q00796 whole entry): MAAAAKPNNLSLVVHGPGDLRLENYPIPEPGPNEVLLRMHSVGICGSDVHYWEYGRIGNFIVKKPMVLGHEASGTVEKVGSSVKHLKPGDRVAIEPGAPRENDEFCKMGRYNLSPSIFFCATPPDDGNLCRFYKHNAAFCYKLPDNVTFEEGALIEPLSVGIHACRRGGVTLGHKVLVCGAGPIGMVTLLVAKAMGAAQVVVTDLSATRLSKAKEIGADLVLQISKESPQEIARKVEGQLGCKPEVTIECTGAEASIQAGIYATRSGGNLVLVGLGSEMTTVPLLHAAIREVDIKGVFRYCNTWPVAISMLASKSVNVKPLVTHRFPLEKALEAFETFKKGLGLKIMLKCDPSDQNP
In words: Inhibition sorbitol dehydrogenase by spectrophotometric analysis.

Test [1] has as its target Aldo-keto reductase family 1 member B1 (Homo sapiens, UniProt P15121). Kind of test: Inhibition human recombinant […] by spectrophotometric analysis.
The nature of test [2]: Selectivity index, ratio of IC50 for human recombinant […] to IC50 for kidney aldose reductase 2.
The nature of test [3]: Inhibition kidney aldose reductase 2 by spectrophotometric analysis.
The nature of test [4]: Selectivity index, ratio of IC50 for sorbitol dehydrogenase to IC50 for kidney aldose reductase 2.
For the next test, the species on record is Rattus norvegicus. In words: Reduction of galactitol accumulation in Wistar rat lens after 24 hrs. Type of test: functional, tissue-based. The settings on record: Lens of camera-type eye.

As usually defined, the IC50 is the concentration that inhibits the measured activity by half. Consider `O=C(O)Cc1cc(=O)oc2cc(O)ccc12`, for which the half-inhibitory concentration (IC50) against Sorbitol dehydrogenase is 163 µM; in test [1], 20.8 µM; in test [3] it was 142 µM. Moreover, the Ratio IC50 in test [2] stood at 0.15; in test [4], 1.15.
For the molecule `O=C(O)Cc1cc(=O)oc2cc(O)c(O)cc12`, the IC50 was 335 µM on Sorbitol dehydrogenase, 63.3 µM in test [1] and 53.4 µM in test [3]. Moreover, the Ratio IC50 in test [2] was determined as 1.19; in test [4], 6.27.
With `O=c1cc(-c2ccccc2)c2cc(O)c(O)cc2o1`, the IC50 came out at 288 µM against Sorbitol dehydrogenase, 66.3 µM in test [1] and 9.6 µM in test [3]. Moreover, the Ratio IC50 in test [2] was 6.9; in test [4] it was 30. The Activity result in the test listed under Rattus norvegicus was “Dose-dependent effect”.
In the case of `O=c1cc(-c2ccccc2)c2ccc(O)cc2o1`, the results for the IC50 (at Sorbitol dehydrogenase; in test [1]; in test [3]) were 70.7 µM, 2.4 µM and 36.7 µM, respectively. Moreover, the Ratio IC50 in test [2] amounted to 0.07; in test [4], 1.93.
In the case of `CC(/C=C1\SC(=S)N(CC(=O)O)C1=O)=C\c1ccccc1`, the values for the IC50 (against Sorbitol dehydrogenase; in test [3]) were 67.7 µM and 1.4 µM, respectively.
In the case of `O=c1oc2ccccc2cc1O` [3-HYDROXYCOUMARIN], the IC50 is 106 µM against Sorbitol dehydrogenase, 62 µM in test [1] and 172 µM in test [3]. The Ratio IC50 in test [2] was 0.35; in test [4] it was 0.62.
`O=c1cc(O)c2ccccc2o1` [4-HYDROXYCOUMARINS]: the IC50 against Sorbitol dehydrogenase is over 400 µM; in test [1] it was over 400 µM; in test [3], 40.5 µM. Also, the Ratio IC50 in test [2] and in test [4] was over 9.88 each time.
`Cc1cc(=O)oc2cc(O)c(O)cc12` [4-METHYLESCULETIN]: the IC50 at Sorbitol dehydrogenase came out at 212 µM; in test [1], 64.4 µM; in test [3] it was 38.3 µM. Moreover, the figures for the Ratio IC50 in test [2] and in test [4] were 1.68 and 5.54, respectively.
For `O=c1ccc2cc(O)ccc2o1` [6-HYDROXYCOUMARIN], the IC50 against Sorbitol dehydrogenase is over 400 µM; in test [1] it was 171 µM; in test [3] it was 156 µM. Also, the Ratio IC50 is 1.1 in test [2] and over 2.56 in test [4].
Consider `O=c1ccc2ccccc2o1` [COUMARIN], for which the half-maximal inhibitory concentration (IC50) at Sorbitol dehydrogenase is over 400 µM; in test [1], over 500 µM; in test [3], over 400 µM.
For `O=c1ccc2cc(O)c(O)cc2o1` [ESCULETIN], the half-inhibitory concentration (IC50) amounted to 82.9 µM against Sorbitol dehydrogenase, 67.2 µM in test [1] and 36.5 µM in test [3]. The Ratio IC50 in test [2] was found to be 1.84; in test [4], 2.27.
`COc1ccc2ccc(=O)oc2c1` [HERNIARIN] showed an IC50 at Sorbitol dehydrogenase of 124 µM.
For the molecule `Cc1cc(=O)oc2cc(O)ccc12` [HYMECROMONE], the IC50 against Sorbitol dehydrogenase was found to be 153 µM; in test [1] it was 24.5 µM; in test [3], 89.9 µM. Moreover, the values for the Ratio IC50 in test [2] and in test [4] were 0.27 and 1.7, respectively.
Turning to `COc1cc2oc(=O)ccc2cc1O` [ISOSCOPOLETIN], the 50% inhibitory concentration (IC50) against Sorbitol dehydrogenase is over 250 µM; in test [1], 56.2 µM; in test [3] it was 101 µM. For the same molecule, the Ratio IC50 in test [2] is 0.56; in test [4], over 2.48.
Taken in the same sequence, the figures for `COc1cc2ccc(=O)oc2cc1O` [SCOPOLETIN] were 137 µM, 74.4 µM, 46 µM, 1.62 and 2.98.
With `O=c1ccc2ccc(O)cc2o1` [UMBELLIFERONE], the IC50 against Sorbitol dehydrogenase stood at 120 µM; in test [1], 22.9 µM; in test [3], 85.7 µM. Besides, the Ratio IC50 in test [2] stood at 0.27; in test [4] it was 1.4.
